Drawing on patent publication US11198687B2, “Heteroaryl allosteric modulators of nicotinic acetylcholine receptors” (Merck Sharp & Dohme Corp., priority 2017, dated 2021), this text covers EC50 for 22 compounds.

Read-outs that look alike come from different tables or passages of the source.

For this assay, the target named is human α7 nAChR (Homo sapiens, UniProt P36544). Put plainly: Automated patch-clamp electrophysiology functional assay (Assay A). Type of assay: cell-based. The following applies: IonFlux HT whole-cell population patch, HEK cell line stably expressing human RIC-3 and human α7, 40 μM acetylcholine. On the procedure: The α7 nAChR positive allosteric modulator (PAM) activity of the present compounds may be tested using assays known in the art. […] The assay was performed using the IonFlux HT in a whole-cell, population patch configuration. See Golden et al. Assay Drug Dev. Technol. (2011) 9:608-619. The compounds were assessed for their ability to modulate the function of the human α7 nAChR stably expressed in a HEK cell line both in the presence, and in the absence of the natural α7 agonist acetylcholine. By performing a series of such measurements at different concentrations, the effective concentration of the α7 nAChR PAMs (EC50) was determined. See Spencer et al. Assay Drug Dev. Technol. (2012) 10:313-324.
Direct activation of α7 (agonism), and potentiation of acetylcholine-evoked α7 currents was determined as follows:
Automated Patch-Clamp Electrophysiology Functional Assay (Assay A)
Automated patch-clamp electrophysiology was performed using the IonFlux HT (Fluxion Biosciences Inc., San Francisco, Calif.) in the whole-cell, population patch configuration. Test compounds were assessed for their ability to modulate the function of the α7 nicotinic acetylcholine receptor both in the presence, and in the absence of the natural α7 agonist acetylcholine. A HEK cell line stably expressing both human RIC-3 and human α7 (PrecisION hnAChR α7/RIC-3, Eurofins Pharma, St. Charles, Mo.) was cultured in 175 cm^2 triple-layer tissue culture flasks to no more than 90% confluency in DMEM/F-12 growth media supplemented with 10% heat-inactivated fetal bovine serum, 1% non-essential amino acids, 0.625 μg/mL Puromycin, and 400 μg/mL Geneticin. Immediately prior to assay, cells were detached by first aspirating growth media, rinsing with Dulbecco's phosphate buffered saline, and then adding 10 mL of Accutase (Innovative Cell Technologies, San Diego, Calif.) to the flask and then incubating at 37° C. for 5 minutes. Detached cells were then recovered by the addition of 40 mL of CHO-serum-free media supplemented with 25 mM HEPES, and rocked gently in a 50 mL conical tube for 20 minutes prior to patch-clamp assay. […] The cell suspension was added to the cell inlet wells on an IonFlux HT population patch plate which had previously been rinsed and primed with deionized H2O. Test compounds were serially diluted in DMSO and then resuspended to the final test concentration in external recording solution, with, or without 40 μM acetylcholine added to the external recording solution; test compounds were then transferred to the lonFlux HT population patch plate. Internal recording solution (110 mM TrisPO4, 28 mM TrisBase, 0.1 mM CaCl2, 2 mM MgCl2, 11 mM EGTA, 4 mM MgATP) was added to the internal recording solution inlet wells on the IonFlux HT patch plate previously loaded with cells and test compounds, and the plate loaded into the IonFlux HT instrument. A protocol was executed on the IonFlux HT to trap the cells, break into the cells, and establish the whole-cell recording configuration; cells were voltage-clamped at a holding potential of −60 mV for the duration of the experiment, all experiments were conducted at room temperature, and the IonFlux HT injection pressure was 8 psi for solution applications. Upon establishing the whole-cell configuration, external recording solution was perfused into the recording chambers for 120 seconds and then 40 μM acetylcholine was applied for 1 second and immediately washed off with external recording solution for 60 seconds. The 40 μM acetylcholine-evoked α7 current served as the current response to which subsequent test compound effects, in the presence, or in the absence of 40 μM acetylcholine would be quantified relative to. Next, test compounds were evaluated at multiple concentrations for their ability to induce, or modulate α7 current responses; three concentrations of test compound were evaluated in ascending dose fashion per recording.

Chain of human α7 nAChR (P36544 23-502): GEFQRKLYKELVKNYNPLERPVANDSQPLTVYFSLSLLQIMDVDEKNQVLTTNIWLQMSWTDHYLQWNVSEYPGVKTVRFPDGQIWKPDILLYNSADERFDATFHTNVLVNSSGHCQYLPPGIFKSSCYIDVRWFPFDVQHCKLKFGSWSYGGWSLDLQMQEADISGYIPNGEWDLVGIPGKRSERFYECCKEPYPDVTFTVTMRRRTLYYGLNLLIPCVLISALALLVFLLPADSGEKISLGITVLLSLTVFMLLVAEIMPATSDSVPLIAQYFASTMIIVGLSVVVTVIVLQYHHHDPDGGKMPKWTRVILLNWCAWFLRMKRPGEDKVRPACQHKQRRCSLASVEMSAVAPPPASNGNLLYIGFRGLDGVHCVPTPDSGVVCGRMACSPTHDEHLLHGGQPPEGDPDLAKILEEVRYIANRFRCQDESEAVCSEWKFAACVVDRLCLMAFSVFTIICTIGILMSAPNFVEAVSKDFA

As for `Cc1nc(S(N)(=O)=O)ccc1[C@@H]1C[C@H]1c1nc(-c2ccccc2)no1` (relative stereo) [Example 5, 6-Methyl-5-[trans-2-(3-phenyl-1,2,4-oxadiazol-5-yl)cyclopropyl]pyridine-2-sulfonamide], the EC50 was 3400 nM (read-out: α7 nAChR EC50) and 500 to 5000 nM (read-out: α7 nAChR Potency).
For `CC1(C)[C@H](c2ccc(S(N)(=O)=O)nc2)[C@H]1c1ncc(C2CCCC2)s1` [Example 9, 5-[(1R,3R)-3-(5-Cyclopentyl-1,3-thiazol-2-yl)-2,2-dimethylcyclopropyl]pyridine-2-sulfonamide], the EC50 (read-out: α7 nAChR EC50) is 720 nM and the EC50 (read-out: α7 nAChR Potency) was in the range of 500 to 5000 nM.
Turning to `CC(C)(C)c1noc([C@H]2[C@H](c3ccc(S(N)(=O)=O)cn3)C2(C)C)n1` [Example F9, 6-[(1S,3S)-3-(3-tert-Butyl-1,2,4-oxadiazol-5-yl)-2,2-dimethylcyclopropyl]pyridine-3-sulfonamide], the EC50 (read-out: α7 nAChR Potency) fell in the range of 500 to 5000 nM.
As to `CC1(C)[C@@H](c2ccc(S(N)(=O)=O)nc2)[C@@H]1c1nc(-c2cncc(C(F)(F)F)c2)no1` [Example B4, 5-[(1S,3S)-2,2-Dimethyl-3-{3-[5-(trifluoromethyl)pyridin-3-yl]-1,2,4-oxadiazol-5-yl}cyclopropyl]pyridine-2-sulfonamide], the EC50 is 2500 nM (read-out: α7 nAChR EC50) and 500 to 5000 nM (read-out: α7 nAChR Potency).
The matching figures for `CC1(C)[C@H](c2ccc(S(N)(=O)=O)cn2)[C@H]1c1nc(C2CCCC2)no1` [Example E2, 6-[(1R,3R)-3-(3-Cyclopentyl-1,2,4-oxadiazol-5-yl)-2,2-dimethylcyclopropyl]pyridine-3-sulfonamide]: 3200 nM and 500 to 5000 nM.
In the case of `CC1(C)[C@@H](c2ccc(S(N)(=O)=O)nc2)[C@@H]1c1nc(-c2cccc(C(F)(F)F)c2)no1` [Example B5, 5-[(1S,3S)-2,2-Dimethyl-3-{3-[3-(trifluoromethyl)phenyl]-1,2,4-oxadiazol-5-yl}cyclopropyl]pyridine-2-sulfonamide], the EC50 (read-out: α7 nAChR EC50) turned out to be 3000 nM and the EC50 (read-out: α7 nAChR Potency) lay in the range of 500 to 5000 nM.
The matching figures for `CC1(C)[C@@H](c2ccc(S(N)(=O)=O)nc2)[C@@H]1c1nc(C2CCC2)no1` [Example B9, 5-[(1S,3S)-3-(3-Cyclobutyl-1,2,4-oxadiazol-5-yl)-2,2-dimethylcyclopropyl]pyridine-2-sulfonamide]: 620 nM and 500 to 5000 nM.
Consider `CC1(C)[C@@H](c2ccc(S(N)(=O)=O)nc2)[C@@H]1c1noc(-c2c(F)ccc(F)c2F)n1` (racemic) [Example C1, 5-{trans-2,2-Dimethyl-3-[5-(2,3,6-trifluorophenyl)-1,2,4-oxadiazol-3-yl]cyclopropyl}pyridine-2-sulfonamide], for which the EC50 (read-out: α7 nAChR EC50) came to 580 nM and the EC50 (read-out: α7 nAChR Potency) fell in the range of 500 to 5000 nM.
With `CC1(C)[C@H](c2ccc(S(N)(=O)=O)nc2)[C@H]1c1nc(-c2cccc(F)c2)no1` [Example A7, 5-{(1R,3R)-3-[3-(3-Fluorophenyl)-1,2,4-oxadiazol-5-yl]-2,2-dimethylcyclopropyl}pyridine-2-sulfonamide], the EC50 is, setting by setting: (read-out: α7 nAChR EC50) 650 nM; (read-out: α7 nAChR Potency) 500 to 5000 nM.
On the same counts, the results for `CC1(C)[C@@H](c2ccc(S(N)(=O)=O)nc2)[C@@H]1c1cc(C2CCCC2)no1` (relative stereo) [Example 12, 5-[trans-3-(3-Cyclopentylisoxazol-5-yl)-2,2-dimethylcyclopropyl]pyridine-2-sulfonamide] are 1100 nM and 500 to 5000 nM.
With `CC1(C)[C@@H](c2ccc(S(N)(=O)=O)cn2)[C@@H]1c1nc(C2CCCCC2)no1` [Example 10, 6-[(1S,3S)-3-(3-Cyclohexyl-1,2,4-oxadiazol-5-yl)-2,2-dimethylcyclopropyl]pyridine-3-sulfonamide], the EC50 is 480 nM (read-out: α7 nAChR EC50) and 100 to 500 nM (read-out: α7 nAChR Potency).
For the compound `CC1(C)[C@@H](c2ccc(S(N)(=O)=O)nc2)[C@@H]1c1nc(-c2ccccc2)no1` [Example 3, 5-[(1S,3S)-2,2-Dimethyl-3-(3-phenyl-1,2,4-oxadiazol-5-yl)cyclopropyl]pyridine-2-sulfonamide], the EC50 runs as follows: (read-out: α7 nAChR EC50) 380 nM; (read-out: α7 nAChR Potency) 100 to 500 nM.
As for `CC1(C)[C@@H](c2ccc(S(N)(=O)=O)cn2)[C@@H]1c1nc(-c2cncc(C(F)(F)F)c2)no1` [Example F2, 6-[(1S,3S)-2,2-Dimethyl-3-{3-[5-(trifluoromethyl)pyridin-3-yl]-1,2,4-oxadiazol-5-yl}cyclopropyl]pyridine-3-sulfonamide], the EC50 was 3300 nM (read-out: α7 nAChR EC50) and 500 to 5000 nM (read-out: α7 nAChR Potency).
`CC(C)c1noc([C@H]2[C@H](c3ccc(S(N)(=O)=O)nc3)C2(C)C)n1` [Example B13, 5-{(1S,3S)-2,2-Dimethyl-3-[3-(propan-2-yl)-1,2,4-oxadiazol-5-yl]cyclopropyl}pyridine-2-sulfonamide]: for the setting “read-out: α7 nAChR Potency”, the EC50 fell in the range of 500 to 5000 nM.
As for `CC1(C)[C@H](c2ccc(S(N)(=O)=O)nc2)[C@H]1c1nc(-c2ccc(F)cc2F)no1` [Example A8, 5-{(1R,3R)-3-[3-(2,4-Difluorophenyl)-1,2,4-oxadiazol-5-yl]-2,2-dimethylcyclopropyl}pyridine-2-sulfonamide], under “read-out: α7 nAChR Potency”, the EC50 was 500 to 5000 nM.
`CC(C)c1noc([C@@H]2[C@@H](c3ccc(S(N)(=O)=O)nc3)C2(C)C)n1` [Example A14, 5-{(1R,3R)-2,2-Dimethyl-3-[3-(propan-2-yl)-1,2,4-oxadiazol-5-yl]cyclopropyl}pyridine-2-sulfonamide]: the EC50 by setting is: (read-out: α7 nAChR EC50) 570 nM; (read-out: α7 nAChR Potency) 500 to 5000 nM.
For the compound `CC1(C)[C@@H](c2ccc(S(N)(=O)=O)cn2)[C@@H]1c1nc(C2CCCC2)no1` [Example F3, 6-[(1S,3S)-3-(3-Cyclopentyl-1,2,4-oxadiazol-5-yl)-2,2-dimethylcyclopropyl]pyridine-3-sulfonamide], the EC50 (read-out: α7 nAChR EC50) came out at 340 nM and the EC50 (read-out: α7 nAChR Potency) is 100 to 500 nM.
On the same counts, the results for `CC1(C)[C@H](c2ccc(S(N)(=O)=O)nc2)[C@H]1c1nc(-c2ccccc2)no1` [Example A1, 5-[(1R,3R)-2,2-Dimethyl-3-(3-phenyl-1,2,4-oxadiazol-5-yl)cyclopropyl]pyridine-2-sulfonamide] are 1500 nM and 500 to 5000 nM.
On the same counts, the results for `CC1(C)[C@H](c2ccc(S(N)(=O)=O)nc2)[C@H]1c1nc(-c2cncc(C(F)(F)F)c2)no1` [Example A2, 5-[(1R,3R)-2,2-Dimethyl-3-{3-[5-(trifluoromethyl)pyridin-3-yl]-1,2,4-oxadiazol-5-yl}cyclopropyl]pyridine-2-sulfonamide] are 1400 nM and 500 to 5000 nM.
As for `CC1(C)C(c2ccc(S(N)(=O)=O)nc2)C1c1cc(-c2cccc(F)c2)no1` (racemic) [Example C3, 5-{trans-3-[3-(3-Fluorophenyl)isoxazol-5-yl]-2,2-dimethylcycpropyl}pyridine-2-sulfonamide], the EC50 is 430 nM (read-out: α7 nAChR EC50) and 100 to 500 nM (read-out: α7 nAChR Potency).
The matching figures for `CC1(C)[C@H](c2ccc(S(N)(=O)=O)nc2)[C@H]1c1nc(C2CC(F)(F)C2)no1` [Example A11, 5-{(1R,3R)-3-[3-(3,3-Difluorocyclobutyl)-1,2,4-oxadiazol-5-yl]-2,2-dimethylcyclopropyl}pyridine-2-sulfonamide]: 3000 nM and 500 to 5000 nM.
Regarding `COc1ccc(Cl)cc1-c1noc([C@H]2[C@H](c3ccc(S(N)(=O)=O)cn3)C2(C)C)n1` [Example F4, 6-{(1S,3S)-3-[3-(5-Chloro-2-methoxyphenyl)-1,2,4-oxadiazol-5-yl]-2,2-dimethylcyclopropyl}pyridine-3-sulfonamide], under “read-out: α7 nAChR Potency”, the EC50 was in the range of 500 to 5000 nM.
